Consider 32 molecules from patent US6586405B2, “Non-covalent inhibitors of urokinase and blood vessel formation” (Corvas International, Inc., priority 2000, dated 2003).

As usually defined, the Ki is the dissociation constant of the complex between target and ligand, obtained from inhibition or displacement. The IC50 is the concentration at which inhibition is half-maximal.

Assay type in all cases: biochemical
One assay deals with T1, Urokinase (Abbokinase) (Homo sapiens, UniProt P00749).
T1 construct: purchased Abbott Laboratories (manufacturer), obtained from Priority Pharmaceuticals
Nature of the assay: Urokinase assay, chromogenic substrate S-2444. The conditions noted are these: Ki calculated using the IC50 value; 30 minute incubation, HBSA buffer; read-out: Ki uPA. The protocol:
(§1) The ability of compounds of the present invention to act as selective inhibitors of urokinase catalytic activity was assessed by determining the concentration of test compound which inhibited the activity of this enzyme by 50%, (IC50), and comparing this value to that determined for all or some of the following related serine proteases: recombinant tissue plasminogen activator (rt-PA), plasmin, activated protein C, chymotrypsin, factor Xa, thrombin and trypsin.
(§2) The buffer used for all assays was HBSA (10 mM HEPES, pH 7.5, 150 mM sodium chloride, 0.1% bovine serum albumin).
(§3) The assay for IC50 determinations was conducted by combining in appropriate wells of a Corning microtiter plate, 50 microliters of HBSA, 50 microliters of the test compound at a specified concentration (covering a broad concentration range) diluted in HBSA (or HBSA alone for VO (uninhibited velocity) measurement), and 50 microliters of the enzyme diluted in HESA. Following a 30 minute incubation at ambient temperature, 50 microliters of the substrate at the concentrations specified below were added to the wells, yielding a final total volume of 200 microliters (about 4 times Km). The initial velocity of chromogenic substrate hydrolysis was measured by the change in absorbance at 405 nm using a Thermo Max® Kinetic Microplate Reader over a 5 minute period in which less than 5% of the added substrate was utilized. The concentration of added inhibitor which caused a 50% decrease in the initial rate of hydrolysis was defined as the IC50 value. Ki may be calculated from the IC50 value.
Urokinase catalytic activity was determined using the chromogenic substrate […] S-2444 (L-Pyroglutamyl-glycyl-L-arginine-p-nitroaniline hydrochloride), obtained from DiaPharma Group, Inc. Urokinase (Abbokinase), manufactured by Abbott Laboratories, was obtained from Priority Pharmaceuticals and diluted to 750 pM in the HBSA assay buffer prior to use. The assay buffer was HBS (10 mM HEPES, 150 mM sodium chloride pH 7.4) with 0.1% BSA. Ki was calculated using the IC50 value.

The target of the next assay is T2, human plasmin (Homo sapiens, UniProt P00747).
T2 construct: Purified human plasmin was obtained from Enzyme Research Laboratories, Inc; purchased Enzyme Research Laboratories, Inc
T2 sequence (P00747 581-810 limits assumed): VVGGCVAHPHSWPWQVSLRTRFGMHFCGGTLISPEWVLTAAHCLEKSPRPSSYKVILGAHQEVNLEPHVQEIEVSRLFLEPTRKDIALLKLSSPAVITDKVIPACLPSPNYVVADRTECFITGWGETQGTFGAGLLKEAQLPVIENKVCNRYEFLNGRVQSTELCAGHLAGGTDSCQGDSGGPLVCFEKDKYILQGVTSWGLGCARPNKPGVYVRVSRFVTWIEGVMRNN
T2 sequence (P00747 97-580 partner limits assumed): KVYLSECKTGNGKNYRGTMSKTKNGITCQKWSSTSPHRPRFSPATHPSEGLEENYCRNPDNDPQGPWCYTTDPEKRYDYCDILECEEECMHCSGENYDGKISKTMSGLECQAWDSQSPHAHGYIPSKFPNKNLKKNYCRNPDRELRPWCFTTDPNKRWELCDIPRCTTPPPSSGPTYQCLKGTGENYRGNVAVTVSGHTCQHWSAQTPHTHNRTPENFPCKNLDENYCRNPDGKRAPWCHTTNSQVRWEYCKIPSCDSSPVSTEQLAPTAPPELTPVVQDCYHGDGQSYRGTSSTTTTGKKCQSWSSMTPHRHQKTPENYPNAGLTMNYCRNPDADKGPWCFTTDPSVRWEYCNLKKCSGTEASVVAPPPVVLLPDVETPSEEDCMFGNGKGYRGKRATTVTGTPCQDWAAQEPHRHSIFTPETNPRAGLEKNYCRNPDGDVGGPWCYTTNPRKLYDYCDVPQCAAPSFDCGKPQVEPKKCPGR
Nature of the assay: Plasmin assay, chromogenic substrate S-2366. The conditions noted are these: 30 minute incubation, HBSA buffer, plasmin 1.0 nM. The protocol:
as §1, §2, §3
Plasmin catalytic activity was determined using the chromogenic substrate, S-2366 [L-pyroglutamyl-L-prolyl-L-arginine-p-nitroaniline hydrochloride], which was obtained from DiaPharma Group. The substrate was made up in deionized water followed by dilution in HBSA prior to the assay in which the final concentration was 300 micromolar (about 2.5-times Km). Purified human plasmin was obtained from Enzyme Research Laboratories, Inc. The enzyme was diluted into HBSA prior to assay in which the final concentration was 1.0 nM.

The target of the next assay is T3, Human rt-PA (Activase) (Homo sapiens, UniProt P00750).
T3 construct: purchased Genentech Inc
T3 sequence (P00750 36-562): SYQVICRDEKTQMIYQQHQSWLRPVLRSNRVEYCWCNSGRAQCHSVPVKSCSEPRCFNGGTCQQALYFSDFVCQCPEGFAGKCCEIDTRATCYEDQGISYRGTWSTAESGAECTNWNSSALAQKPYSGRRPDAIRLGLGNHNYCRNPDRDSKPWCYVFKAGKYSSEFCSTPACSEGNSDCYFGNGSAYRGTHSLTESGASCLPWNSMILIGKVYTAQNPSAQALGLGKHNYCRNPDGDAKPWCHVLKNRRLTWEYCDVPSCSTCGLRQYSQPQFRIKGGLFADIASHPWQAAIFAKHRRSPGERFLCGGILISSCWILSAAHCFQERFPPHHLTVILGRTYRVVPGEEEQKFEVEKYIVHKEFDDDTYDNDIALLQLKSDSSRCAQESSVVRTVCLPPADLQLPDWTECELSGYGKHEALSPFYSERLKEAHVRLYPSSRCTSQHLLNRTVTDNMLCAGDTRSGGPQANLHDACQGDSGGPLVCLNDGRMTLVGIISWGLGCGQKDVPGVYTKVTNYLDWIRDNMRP
Briefly: Recombinant tissue plasminogen activator (rt-PA) assay, chromogenic substrate Pefachrome t-PA. The conditions noted are these: 30 minute incubation, HBSA buffer, rt-PA 1.0 nM. The protocol: as §1, §2, §3
rt-PA catalytic activity was determined using the substrate, Pefachrome t-PA (CH3SO2-D-hexahydrotyrosine-glycyl-L-arginine-p-nitroaniline, obtained from Pentapharm Ltd.). The substrate was made up in deionized water followed by dilution in HBSA prior to the assay in which the final concentration was 500 micromolar (about 3-times Km). Human rt-PA (Activase®) was obtained from Genentech Inc. The enzyme was reconstituted in deionized water and diluted into HBSA prior to the assay in which the final concentration was 1.0 nM.

For the molecule `CCCCS(=O)(=O)NC(CO)C(=O)N1CC2CC2C1C(=O)NCc1ccc(C(=N)N)cc1` (mixture of isomers) [AA], at Urokinase (Abbokinase), the inhibition constant (Ki) was under 0.1 µM. Also, the IC50 on human plasmin and at Human rt-PA (Activase) was over 2.5 µM throughout.
For the molecule `N=C(N)c1ccc(CNC(=O)[C@@H]2CCN2C(=O)[C@@H](CO)NS(=O)(=O)Cc2ccccc2)cc1` [R], on Urokinase (Abbokinase), the inhibitory constant (Ki) is under 0.1 µM. Further, the half-maximal inhibitory concentration (IC50) against human plasmin and on Human rt-PA (Activase) was over 2.5 µM each time.
In the case of `N=C(N)c1ccc(CNC(=O)[C@@H]2CCCN2C(=O)[C@@H](CO)NS(=O)(=O)Cc2ccccc2)cc1` [J], the concentration for half-maximal inhibition (IC50) against human plasmin was 0.25 to 2.5 µM; on Human rt-PA (Activase) it was over 2.5 µM.
Regarding `CCCCS(=O)(=O)NC(CO)C(=O)N1CCCC1C(=O)NCc1ccc(C(=N)N)cc1` (mixture of isomers) [N], the inhibition constant (Ki) at Urokinase (Abbokinase) is under 0.1 µM. For the same molecule, the half-inhibitory concentration (IC50) against human plasmin and at Human rt-PA (Activase) was over 2.5 µM throughout.
Consider `CCCCS(=O)(=O)N[C@H](CO)C(=O)N1CCC1C(=O)NCc1ccc(C(=N)N)cc1` (stereo partly drawn) [Z], for which the inhibitory constant (Ki) on Urokinase (Abbokinase) was under 0.1 µM. Besides, the IC50 on human plasmin and on Human rt-PA (Activase) was over 2.5 µM each time.
As to `N=C(N)c1ccc(CNC(=O)C2C3CC3CN2C(=O)C(CO)NS(=O)(=O)Cc2ccccc2)cc1` (stereo not drawn) [AD], the Ki at Urokinase (Abbokinase) is under 0.1 µM. For the same molecule, the IC50 is 0.25 to 2.5 µM against human plasmin and over 2.5 µM at Human rt-PA (Activase).
For `C[C@H](NC(=O)[C@@H](CO)NS(=O)(=O)Cc1ccccc1)C(=O)NCc1ccc(C(=N)N)cn1` [AO], in that order: 0.1 to 0.25 µM, over 2.5 µM and over 2.5 µM.
For `N=C(N)c1ccc(CNC(=O)C2C=CCN2C(=O)C(CO)NS(=O)(=O)Cc2ccccc2)s1` (mixture of isomers) [U], the Ki at Urokinase (Abbokinase) is under 0.1 µM. The half-maximal inhibitory concentration (IC50) on human plasmin and on Human rt-PA (Activase) was 0.25 to 2.5 µM throughout.
For `CCCCS(=O)(=O)N[C@H](CO)C(=O)N[C@@H](C)C(=O)NCc1ccc(C(=N)N)s1` [L], the Ki on Urokinase (Abbokinase) is under 0.1 µM. Also, the IC50 on human plasmin and at Human rt-PA (Activase) was over 2.5 µM each time.
Take `C[C@@H](NC(=O)[C@@H](CO)NS(=O)(=O)c1cccc2ccccc12)C(=O)NCc1ccc(C(=N)N)cc1` [AP]: on Urokinase (Abbokinase), the Ki was under 0.1 µM. Also, the concentration for half-maximal inhibition (IC50) on human plasmin and on Human rt-PA (Activase) was over 2.5 µM in each case.
Take `N=C(N)c1ccc(CNC(=O)[C@@H]2C=CCN2C(=O)[C@@H](CO)NS(=O)(=O)Cc2ccccc2)cc1` [K]: the Ki on Urokinase (Abbokinase) is under 0.1 µM. The results for the half-maximal inhibitory concentration (IC50) against human plasmin and on Human rt-PA (Activase) were 0.25 to 2.5 µM and over 2.5 µM, respectively.
As for `N=C(N)c1ccc(CNC(=O)[C@@H]2C=CCN2C(=O)[C@@H](CO)NS(=O)(=O)CCc2ccccc2)cc1` [F], the Ki at Urokinase (Abbokinase) is under 0.1 µM. In addition, on Human rt-PA (Activase), the 50% inhibitory concentration (IC50) is over 2.5 µM.
For `CCCCS(=O)(=O)N[C@H](CO)C(=O)N[C@@H](C)C(=O)NCCCCNC(=N)N` [B], the inhibition constant (Ki) at Urokinase (Abbokinase) was 0.25 to 2.5 µM. Also, the concentration for half-maximal inhibition (IC50) on human plasmin and on Human rt-PA (Activase) was over 2.5 µM each time.
On to `C[C@H](NC(=O)[C@@H](CO)NS(=O)(=O)Cc1ccccc1)C(=O)NCc1ccc(C(=N)N)cc1` [AJ], for which the IC50 on human plasmin and at Human rt-PA (Activase) was over 2.5 µM throughout.
Consider `N=C(N)c1ccc(CNC(=O)[C@@H]2CCN2C(=O)[C@@H](CO)NS(=O)(=O)CCc2ccccc2)cc1` [S], for which, on Urokinase (Abbokinase), the Ki was 0.1 to 0.25 µM. Further, the half-inhibitory concentration (IC50) against human plasmin and on Human rt-PA (Activase) was over 2.5 µM in each case.
As to `C[C@H](NC(=O)[C@@H](CO)NS(=O)(=O)c1ccc2ccccc2c1)C(=O)NCc1ccc(C(=N)N)cc1` [AI], the inhibition constant (Ki) at Urokinase (Abbokinase) is 0.1 to 0.25 µM. Besides, the half-inhibitory concentration (IC50) against human plasmin and at Human rt-PA (Activase) was over 2.5 µM each time.
With `CC[C@H](NC(=O)[C@@H](CO)NS(=O)(=O)Cc1ccccc1)C(=O)NCc1ccc(C(=N)N)cc1` [AT], at Urokinase (Abbokinase), the Ki was under 0.1 µM. Moreover, the half-maximal inhibitory concentration (IC50) against human plasmin and at Human rt-PA (Activase) was over 2.5 µM in each case.
Turning to `CCCCS(=O)(=O)N[C@H](CO)C(=O)N1CC2CC2C1C(=O)NCc1ccc(C(=N)N)cc1` (stereo partly drawn) [Q], the Ki at Urokinase (Abbokinase) was under 0.1 µM. In addition, the IC50 on human plasmin and on Human rt-PA (Activase) was over 2.5 µM each time.
On to `C[C@H](NC(=O)[C@@H](CO)NS(C)(=O)=O)C(=O)NCc1ccc(C(=N)N)cc1` [AU], for which the inhibition constant (Ki) on Urokinase (Abbokinase) was 0.25 to 2.5 µM. For the same molecule, the half-maximal inhibitory concentration (IC50) against human plasmin and on Human rt-PA (Activase) was over 2.5 µM throughout.
`CCC[C@H](NC(=O)[C@@H](CO)NS(=O)(=O)Cc1ccccc1)C(=O)NCc1ccc(C(=N)N)cc1` [AS]: the inhibition constant (Ki) at Urokinase (Abbokinase) was under 0.1 µM. The IC50 against human plasmin and on Human rt-PA (Activase) was over 2.5 µM each time.
`C[C@H](NC(=O)[C@@H](CO)NS(=O)(=O)Cc1ccccc1)C(=O)NCc1ccc(NC(=N)N)cc1` [AN]: at Urokinase (Abbokinase), the Ki was under 0.1 µM. For the same molecule, the IC50 against human plasmin and on Human rt-PA (Activase) was over 2.5 µM in each case.
Consider `C[C@H](NC(=O)[C@@H](CO)NS(=O)(=O)Cc1ccccc1)C(=O)NCc1ccc(NC(=N)N)s1` [AW], for which the Ki at Urokinase (Abbokinase) was 0.25 to 2.5 µM. In addition, the half-maximal inhibitory concentration (IC50) against human plasmin and at Human rt-PA (Activase) was over 2.5 µM in each case.
Consider `C=CC[C@H](NC(=O)[C@@H](CO)NS(=O)(=O)Cc1ccccc1)C(=O)NCc1ccc(C(=N)N)cc1` [AL], for which, at Urokinase (Abbokinase), the inhibition constant Ki was under 0.1 µM. The half-inhibitory concentration (IC50) against human plasmin and on Human rt-PA (Activase) was over 2.5 µM throughout.
`CCCCS(=O)(=O)NC(CO)C(=O)N1CC=CC1C(=O)NCc1ccc(C(=N)N)cc1` (mixture of isomers) [O]: the Ki on Urokinase (Abbokinase) was under 0.1 µM. Also, the IC50 on human plasmin and at Human rt-PA (Activase) was over 2.5 µM throughout.
In the case of `CCCCS(=O)(=O)NC(CO)C(=O)NC(C)C(=O)NCc1ccc(NC(=N)N)cc1` (stereo not drawn) [AG], the Ki at Urokinase (Abbokinase) is under 0.1 µM. For the same molecule, the concentration for half-maximal inhibition (IC50) at human plasmin and on Human rt-PA (Activase) was over 2.5 µM in each case.
For `N=C(N)Nc1ccc(CNC(=O)Cn2cccc(NS(=O)(=O)Cc3ccccc3)c2=O)cc1` [AR], the Ki on Urokinase (Abbokinase) was 0.25 to 2.5 µM. The IC50 at human plasmin and on Human rt-PA (Activase) was over 2.5 µM each time.
Regarding `C[C@H](NC(=O)[C@@H](CO)NS(=O)(=O)Cc1ccccc1)C(=O)NCc1ccc(NC(=N)NC(=O)OC(C)(C)C)cc1` [AM], the inhibitory constant (Ki) at Urokinase (Abbokinase) is under 0.1 µM. In addition, the IC50 on human plasmin and at Human rt-PA (Activase) was over 2.5 µM in each case.
As to `C[C@H](NC(=O)[C@@H](CO)NS(=O)(=O)Cc1ccccc1)C(=O)NCc1ccc(C(=N)N)s1` [AH], the Ki on Urokinase (Abbokinase) was under 0.1 µM. In addition, the IC50 was over 2.5 µM at human plasmin and 0.25 to 2.5 µM on Human rt-PA (Activase).
The corresponding values for `CCCCS(=O)(=O)N[C@H](CO)C(=O)N[C@@H](C)C(=O)NCc1ccc(C(=N)N)cc1` [A] are under 0.1 µM, over 2.5 µM and over 2.5 µM.
Consider `C[C@H](NC(=O)[C@@H](C)NS(=O)(=O)Cc1ccccc1)C(=O)NCc1ccc(C(=N)N)cc1` [AK], for which the Ki at Urokinase (Abbokinase) is under 0.1 µM. The IC50 on human plasmin and on Human rt-PA (Activase) was over 2.5 µM throughout.
As to `N=C(N)Nc1ccc(CNC(=O)[C@@H]2C=CCN2C(=O)[C@@H](CO)NS(=O)(=O)Cc2ccccc2)cc1` [AV], the inhibition constant Ki at Urokinase (Abbokinase) is under 0.1 µM. Further, the concentration for half-maximal inhibition (IC50) at human plasmin and at Human rt-PA (Activase) was over 2.5 µM each time.
For the molecule `N=C(N)c1ccc(CNC(=O)[C@@H]2C3CC3CN2C(=O)[C@@H](CO)NS(=O)(=O)Cc2ccccc2)cc1` (stereo partly drawn) [T], the Ki on Urokinase (Abbokinase) was under 0.1 µM. In addition, the IC50 on human plasmin was 0.25 to 2.5 µM; on Human rt-PA (Activase), over 2.5 µM.
